Assay results taken from article PMC6328587 (Nature Communications, 2019).

Experiments:
JNK1 = JNK1 degradation, western blot in MDA-MB-231 cells; assay type: cell-based, human; details: 0.025-2.5 µM
Description: (§1) […] once with ice-cold PBS (1 × ), followed by lysis in buffer containing 25 mM Tris [pH 7.5], 0.25% sodium deoxycholate, 1% Triton X-100, supplemented with 1X protease inhibitor cocktail (Roche), and phosphatase inhibitors (10 mM NaF, 1 mM Na3VO4, and 20 mM β-glycerophosphate), unless otherwise noted. Lysates were spun at 14,000 × g for 10 min at 4 °C and supernatant was evaluated for protein content using a Pierce BCA Protein Assay (ThermoFisher Scientific). In all experiments, 25–50 μg of protein was loaded onto 10% SDS-PAGE gels or 4–20% Criterion TGX precast gradient gels (Bio-Rad), transferred to nitrocellulose membranes, and probed with the specified antibodies overnight at 4 °C in 1X TBS-Tween (Tris-buffered saline plus 0.02% Tween 20) containing 5% non-fat milk. Immunoblots were visualized using a Bio-Rad ChemiDoc imaging instrument and subsequently processed and quantified using the accompanying Bio-Rad ImageLab software. See Supplementary Figure 8 for uncropped scans of western blots shown in the main text figures.
(§2) Supplementary Figure 4 cont.
(§3) Supplementary Figure 4. Characterization of M APK fam ily degradation selectivity (related to Figures 1-2). (a) p38 M APK fam ily m em bers (α, β, δ, γ) were aligned using the T-Coffee multiple sequence alignm ent server. […] Note: JNK1 and JNK2 are expressed as two alternatively-spliced form s. […]

ERK1 = molecular target: T1, ERK1 (Homo sapiens, UniProt P27361); assay: ERK1 degradation, western blot in MDA-MB-231 cells; assay type: cell-based; details: 0.025-2.5 µM
T1 construct: endogenous in cells; host or cells: MDA-MB-231
Description: as §1, §2, §3

FLAG-p38α = molecular target: T2, FLAG-p38α (Homo sapiens, UniProt Q16539); assay: Ubiquitination assay, FLAG-p38α and HA-Ub in HeLa cells; assay type: cell-based; details: 500 nM PROTAC, 1 h
T2 construct: expressed in transfected cells; host or cells: HeLa
Description: HeLa cells (2 × 10^6) were seeded into 10 cm dishes and allowed to adhere overnight. On the following day, cells were transfected with 3 µg pcDNA5-FLAG-p38α or pcDNA5-FLAG-p38δ and 1 µg pRK5-HA-Ubiquitin-WT (Addgene plasmid #17608) in Opti-MEM media using Lipofectamine 2000 (Invitrogen). After 6 h, Opti-MEM media were replaced with DMEM (1 × ) and cells were grown for an additional 24 h. After this time, cells were treated with indicated concentrations of either vehicle (DMSO) or PROTAC for the indicated amount of time at 37 °C. Cells were then placed on ice, rinsed twice with ice-cold 1X PBS and lysed in 500 µL modified 1X RIPA buffer (25 mM Tris-HCl pH 7.6, 150 mM NaCl, 1% NP-40, 1% sodium deoxycholate, 0.1% SDS) containing 5 mM 1,10-phenanthroline monohydrate, 10 mM N-ethylmaleimide, 20 µM PR-619, and 1X protease inhibitor cocktail (Roche). Lysates were spun down at 14,000 × g at 4 °C for 20 min and protein content was measured by Pierce BCA Protein Assay (ThermoFisher Scientific). […] Immunoprecipitated protein was eluted off of the beads by heating at 95 °C for 5 min and the supernatant was run on an SDS-PAGE gel and evaluated for the presence of immunoprecipitated FLAG-tagged proteins (anti-FLAG M2, Sigma #F1804), as well as ubiquitinated FLAG-tagged proteins (anti-HA-tag (6E2), CST #2367). […]

p38δ = molecular target: T3, p38δ (Homo sapiens, UniProt O15264); assay: CETSA in MDA-MB-231 cell lysate, p38δ; assay type: binding; details: 100 µM PROTAC, 51-55 °C, vs DMSO
T3 construct: endogenous in cells; host or cells: MDA-MB-231
T3 sequence (O15264 1-365): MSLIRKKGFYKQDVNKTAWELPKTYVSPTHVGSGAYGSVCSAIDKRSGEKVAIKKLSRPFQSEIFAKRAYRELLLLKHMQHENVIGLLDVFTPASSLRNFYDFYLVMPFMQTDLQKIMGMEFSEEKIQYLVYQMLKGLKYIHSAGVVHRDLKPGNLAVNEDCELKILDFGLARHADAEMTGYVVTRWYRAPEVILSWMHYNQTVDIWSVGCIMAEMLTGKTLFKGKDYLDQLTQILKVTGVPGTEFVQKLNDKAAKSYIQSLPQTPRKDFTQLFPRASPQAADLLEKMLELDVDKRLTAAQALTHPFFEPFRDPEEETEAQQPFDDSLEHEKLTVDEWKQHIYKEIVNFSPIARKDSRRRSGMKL
Description: CETSA protocol was adapted from[60]. In all, 3 × 10^7 MDA-MB-231 cells (1 × 10^7 cells per condition) were collected and resuspended in ice-cold 1X PBS supplemented with 1X protease inhibitor cocktail (Roche) and lysed by three cycles of liquid nitrogen snap freeze, followed by 50% thaw in a room temperature water bath and an additional 50% thaw at 4 °C. After each freeze–thaw cycle, lysate was vortexed briefly to ensure homogenous thawing. Lysate was then cleared for 20 min by centrifugation (14,000 × g at 4 °C) and the soluble fraction was divided into three equal aliquots. The aliquots were treated with vehicle (2.5% DMSO), 100 µM SJFα, or 100 µM SJFδ and incubated at room temperature for 30 min with gentle rotation. Each aliquot was then divided (50 µL) into eight PCR tubes and individually heated at the indicated temperature for 3 min followed by cooling at room temperature for 3 min. After cooling, samples were spun down for 20 min (14,000 × g at 4 °C) and the supernatant (soluble fraction) was analyzed by SDS-PAGE and immunoblotted for p38δ and alpha-tubulin (negative control).

T1 sequence (P27361 whole entry): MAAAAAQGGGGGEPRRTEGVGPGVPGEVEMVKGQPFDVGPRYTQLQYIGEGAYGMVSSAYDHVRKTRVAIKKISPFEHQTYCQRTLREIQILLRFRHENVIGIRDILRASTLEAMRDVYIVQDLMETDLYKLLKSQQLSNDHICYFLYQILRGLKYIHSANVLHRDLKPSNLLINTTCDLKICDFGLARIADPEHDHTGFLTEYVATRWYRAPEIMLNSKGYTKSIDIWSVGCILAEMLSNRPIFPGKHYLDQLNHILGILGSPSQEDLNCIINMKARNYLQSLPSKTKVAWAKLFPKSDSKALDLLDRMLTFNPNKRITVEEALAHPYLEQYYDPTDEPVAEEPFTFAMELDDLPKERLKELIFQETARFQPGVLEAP
T2 sequence (Q16539 whole entry): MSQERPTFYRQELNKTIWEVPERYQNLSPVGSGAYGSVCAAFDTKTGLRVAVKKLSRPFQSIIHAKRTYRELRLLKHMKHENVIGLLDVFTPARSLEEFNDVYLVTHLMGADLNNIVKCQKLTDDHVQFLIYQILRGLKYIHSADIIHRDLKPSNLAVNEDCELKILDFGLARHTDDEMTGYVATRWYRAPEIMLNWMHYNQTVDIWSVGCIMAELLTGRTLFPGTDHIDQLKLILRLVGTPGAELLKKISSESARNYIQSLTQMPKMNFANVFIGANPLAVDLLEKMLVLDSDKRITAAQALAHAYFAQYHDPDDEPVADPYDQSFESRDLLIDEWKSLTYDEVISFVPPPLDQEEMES

| Structure (SMILES) | JNK1 degradation (JNK1) | ERK1 degradation (ERK1) | ubiquitination of FLAG-p38α (FLAG-p38α) | thermal shift in the p38δ melting profile (p38δ) |
| --- | --- | --- | --- | --- |
| COc1cc2c(Oc3ccc(NC(=O)C4(C(=O)Nc5ccc(F)cc5)CC4)cc3F)ccnc2cc1OCCOCCOCCOc1cc(-c2scnc2C)ccc1CNC(=O)[C@@H]1C[C@@H](O)CN1C(=O)[C@H](C(C)C)N1Cc2ccccc2C1=O [SJFδ] | neither PROTAC degrades | neither PROTAC degrades | this effect was not seen | more pronounced at each melting temperature |
| COc1cc2c(Oc3ccc(NC(=O)C4(C(=O)Nc5ccc(F)cc5)CC4)cc3F)ccnc2cc1OCCCCOCCCCOCC(=O)N[C@H](C(=O)N1C[C@H](O)C[C@H]1C(=O)NCc1ccc(-c2scnc2C)cc1)C(C)(C)C [SJFα] | neither PROTAC degrades | neither PROTAC degrades | substantial, high molecular weight (HMW) poly-Ub conjugation | small, but statistically significant |
